Measured values reported in ChEMBL document CHEMBL1132056, “First hydroxamate inhibitors for carboxypeptidase A. N-acyl-N-hydroxy-beta-phenylalanines” (Bioorg Med Chem Lett, 1999).

Biological target: T1, Carboxypeptidase A1 (Homo sapiens, UniProt P15085)
T1 sequence (P15085 whole entry): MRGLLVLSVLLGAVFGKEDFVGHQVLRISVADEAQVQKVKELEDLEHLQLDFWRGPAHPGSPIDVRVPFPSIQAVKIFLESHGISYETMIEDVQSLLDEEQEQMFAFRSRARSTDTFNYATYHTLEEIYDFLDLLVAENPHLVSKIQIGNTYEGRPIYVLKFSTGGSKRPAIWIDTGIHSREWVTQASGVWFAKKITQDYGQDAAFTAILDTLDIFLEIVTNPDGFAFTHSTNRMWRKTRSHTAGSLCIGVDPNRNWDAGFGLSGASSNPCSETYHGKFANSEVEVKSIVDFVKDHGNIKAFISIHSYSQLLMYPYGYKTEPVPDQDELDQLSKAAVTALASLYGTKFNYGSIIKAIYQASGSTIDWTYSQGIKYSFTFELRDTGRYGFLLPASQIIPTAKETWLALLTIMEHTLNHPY
Assay: Compound was tested for its inhibitory activity against carboxypeptidase A (CPA)

Ki [nM]	Compound
4950	O=CN(O)C[C@H](Cc1ccccc1)C(=O)O
560	O=CN(O)C[C@@H](Cc1ccccc1)C(=O)O
5900	CC(=O)N(O)CC(Cc1ccccc1)C(=O)O (centres undefined)
5820	CCC(=O)N(O)CC(Cc1ccccc1)C(=O)O (centres undefined)
980	O=CN(O)CC(Cc1ccccc1)C(=O)O (centres undefined)

The remaining lines, values behind:

Compound	Ki [nM]
O=C(O)C(Cc1ccccc1)CN(O)C(=O)c1ccccc1 (centres undefined)	6500
O=C(O)C(Cc1ccccc1)CN(O)C(=O)CCc1ccccc1 (centres undefined)	1200
O=C(O)C(Cc1ccccc1)CN(O)C(=O)Cc1ccccc1 (centres undefined)	320
O=C(O)C(Cc1ccccc1)CN(O)C(=O)CCCc1ccccc1 (centres undefined)	1160
